What all share (type): in vivo, human
Series [1] concerns patients having undergone bariatric surgery (bypass of at least the duodenum). Kind of series: Long-term efficacy study in Roux-en-Y surgery patients (one year, randomized, double-blind, vs cholecalciferol). On the procedure: The effectiveness of oral sustained-release 25-hydroxyvitamin D3 in restoring serum total 25-hydroxyvitamin D to optimal levels (>30 ng/mL) and increasing bone mineral density, is examined in a one year study of adult male and female patients having undergone bariatric surgery for weight reduction, wherein the surgery included bypass of at least the duodenum. In a randomized, double-blind controlled study, patients are treated with sustained-release 25-hydroxyvitamin D3 or cholecalciferol.
A total of 200 subjects participate in this study. All subjects participating in this study are aged 18 years or older, have bone mineral density T-scores between −2.0 and −4.0 as assessed by dual energy x-ray absorptiometry (DEXA), and have serum total 25-hydroxyvitamin D levels less than 30 ng/mL at the time of enrollment. All subjects receive a multivitamin therapy including calcium (up to 1,000 mg daily) and either cholecalciferol (3000 IU daily) or multiple sustained-release 25-hydroxyvitamin D3 (softgel capsules containing 30 μg 25-hydroxyvitamin D3), and abstain from receiving other Vitamin D therapy and significant sun exposure at study start and continuing through study termination.
After 3 months, the daily 25-hydroxyvitamin D3 softgel capsule dosage is maintained unchanged in patients whose serum total 25-hydroxyvitamin D is between 50 and 90 ng/mL, and increased by one capsule in patients whose serum total 25-hydroxyvitamin D is below 50 ng/mL.
Serum total 25-hydroxyvitamin D, plasma iPTH, serum calcium, serum phosphorus, urinary calcium, urinary phosphorus, and urinary creatinine are measured from the day of surgery, and at monthly intervals. Bone mineral density at four sites (total hip, femoral neck, ⅓radius, and lumbar spine) is determined at quarterly intervals by DEXA.

For series [2], the system named is patients with intractable VDI having undergone bariatric surgery. Description: Long-term efficacy study in bariatric surgery patients (52-week, ERC). On the procedure:
The effectiveness of oral extended-release 25-hydroxyvitamin D3 (ERC) in raising serum total 25-hydroxyvitamin D to ≥30 ng/mL and reducing plasma iPTH by at least 30% from pre-treatement baseline is examined in a 52-week study of male and female patients aged at least 18 years, with intractable VDI, and having undergone bariatric surgery. In a randomized, double-blind controlled study, patients receive ERC or matching placebo.
Subjects are without any disease state or physical condition that might impair evaluation of safety or which would interfere with study participation, including having serum albumin ≤3.0 g/dL; and serum transaminase (alanine aminotransferase [ALT], glutamic-pyruvic transaminase [SGPT], aspartate aminotransferase [AST] or glutamic-oxaloacetic transaminase [SGOT])>2.5 times the upper limit of normal at screening.
When otherwise confirmed eligible at Visit 1, if taking more than 1,500 mg per day of elemental calcium (from diet and supplements), subjects reduce calcium use (to ≤1,500 mg per day) for the duration of the study.
When otherwise confirmed eligible at Visit 1, if taking bone metabolism therapies that may interfere with study endpoints, subjects discontinue use of these agents for the duration of the study. […]
Blood samples are collected at weekly, biweekly or monthly intervals during the pre-treatment period, the 52-week treatment period, the 6-week post-treatment FU period, and at early termination (ET), if applicable. Key parameters analyzed in the collected samples include: plasma iPTH, serum calcium (corrected for serum albumin), serum phosphorus, serum total 25-hydroxyvitamin D, serum calcifediol, serum 1,25-dihydroxyvitamin D3, and serum 24,25-dihydroxyvitamin D3 (24,25D3). Vital signs (VS), and AEs are monitored at each study visit. Other parameters monitored less frequently include brief physical examinations (PEs) and clinical laboratory tests (hematology and clinical chemistries). […] Additional parameters, including serum FGF23 and serum bone turnover markers are monitored at specified intervals. […]

In series [3] the test system is patients who are candidates for Roux-en-Y Surgery. Kind of series: Efficacy study in Roux-en-Y surgery patients (6-month). On the procedure:
The effectiveness of oral sustained-release 25-hydroxyvitamin D3 in restoring serum total 25-hydroxyvitamin D to optimal levels (>30 ng/mL) and reducing parathyroid hormone level, is examined in a 6-month study of adult male and female patients who are candidates for Roux-en-Y Surgery for weight reduction. In a controlled study, patients are treated with sustained-release 25-hydroxyvitamin D3 (softgel capsules containing 25-hydroxyvitamin D3).
A total of 60 subjects participate in this study, all of whom have serum total 25-hydroxyvitamin D levels less than 30 ng/mL at the time of enrollment and serum intact parathyroid hormone levels greater than 70 pg/mL as evidence of SHPT. All subjects receive a multivitamin therapy including calcium (up to 1,000 mg daily) and cholecalciferol (3000 IU daily) following surgery, and abstain from receiving other Vitamin D therapy and significant sun exposure. Serum total 25-hydroxyvitamin D, serum intact parathyroid hormone, serum calcium, serum phosphorus, urinary calcium, urinary phosphorus, and urinary creatinine are measured from the day of surgery, and at monthly intervals following surgery.
After 2 months, the daily calcium dosage is maintained unchanged, and the cholecalciferol supplement is discontinued, while daily administration of sustained-release 25-hydroxyvitamin D3 (softgel capsules containing 30 μg 25-hydroxyvitamin D3) is initiated and continued for four months.

Where [4] appears, read: after 12 months of treatment, DEXA.
Where [5] appears, read: once stable dosing has been achieved.
[6] abbreviates: months 0-2, cholecalciferol 3000 IU daily.
The mark [7] stands for this setting: time zero and months 1 and 2, cholecalciferol 3000 IU daily following surgery.

Regarding `C=C1CC[C@H](O)C/C1=C/C=C1\CCC[C@]2(C)[C@@H]([C@H](C)CCCC(C)C)CC[C@@H]12` [cholecalciferol], in series [1] (setting [4]), the “change in bone mineral density” value is listed as “insignificant changes or reductions”. Besides, in series [1] (setting [5]), the incidence of hypocalcemia entry is “occur more frequently” and the “severity / occurrence of secondary hyperparathyroidism” value is given as “occur more frequently”. Besides, the “change in bone mineral density” value in series [2] (setting [4]) is “insignificant changes or reductions”. Also, in series [2] (setting [5]), the incidence of hypocalcemia result is “occur more frequently” and the “severity / occurrence of secondary hyperparathyroidism” value was “occur more frequently”. Also, in series [3] (setting [6]), the “change in mean serum total 25-hydroxyvitamin D level following surgery” value is reported as “only a moderate increase” and the “change in serum intact parathyroid hormone level following surgery” value is “no significant difference”. Further, in series [3] (setting [7]), the “group mean serum intact parathyroid hormone level” value is recorded as “greater than 70 pg/mL” and the “group mean serum total 25-hydroxyvitamin D level” value is recorded as “less than 30 ng/mL”.

The values are drawn from patent US11590148B2, “Use of calcifediol in bariatric surgery patients” (OPKO IRELAND GLOBAL HOLDINGS, LTD., priority 2018, dated 2023).
